# Measurements reported in the supplement of paper PMC11208160.
# Experiment: recombinant barcode read abundance after kanamycin selection (control-corrected) (log10(CPM+1)); higher = more efficient recombination; sequences stand for … in AGTGCAGAGAAAATCGGCCAGTTTTCTCTGCCTGCAGTCCGCATGCCGT…ATTTATGCAGCGGACTGCCTTTCTCCCAAAGTGATAAACCGGACAGTATCATGGACCGGTTTTCCCGGTAATCCGTATTTGCAAGGTTGGTTTCACT; site = the 11-nt target
# In short: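 Reported as log10(CPM+1), each value stands for recombination efficiency. That efficiency is the averaged, control-corrected counts per million of barcodes found at recombinant junctions. Cells from a pooled E. coli library pairing targets with IS621 bridge RNA target-binding loops were plated twice on chloramphenicol/ampicillin LB agar (control) and twice on chloramphenicol/ampicillin/kanamycin with 0.1 mM IPTG.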
row,Sequence,recombinant barcode read abundance (log10)
1,"TGATACCTCTGGGTTCTAACCTGTTGCGTAG [TGATACCCTAC_LTGcore_TC_RTGcore_CT] (site TGATACCCTAC) (LTG core: TC, RTG core: CT)",0.146
2,"TGATACCTTTGGGTTCTAACCTGTTGCGTAG [TGATACCCTAC_LTGcore_TT_RTGcore_CT] (site TGATACCCTAC) (LTG core: TT, RTG core: CT)",0.0115
3,"TGTATTCAGTGGGTTCTAACCTGTTGCCTAG [TGTATTCCTAG_LTGcore_AG_RTGcore_CT] (site TGTATTCCTAG) (LTG core: AG, RTG core: CT)",0.0134
4,"TGTATTCATTGGGTTCTAACCTGTTGCCTAT [TGTATTCCTAG_LTGcore_AT_RTGcore_AT] (site TGTATTCCTAG) (LTG core: AT, RTG core: AT)",0.144
5,"TGTATTCCATGGGTTCTAACCTGTTGCCTTG [TGTATTCCTAG_LTGcore_CA_RTGcore_CA] (site TGTATTCCTAG) (LTG core: CA, RTG core: CA)",0.579
6,"TGTATTCCGTGGGTTCTAACCTGTTGCCTAG [TGTATTCCTAG_LTGcore_CG_RTGcore_CT] (site TGTATTCCTAG) (LTG core: CG, RTG core: CT)",0.356
7,"TGTATTCCGTGGGTTCTAACCTGTTGCCTCG [TGTATTCCTAG_LTGcore_CG_RTGcore_CG] (site TGTATTCCTAG) (LTG core: CG, RTG core: CG)",0.0909
8,"TGTATTCCTTGGGTTCTAACCTGTTGCCTAC [TGTATTCCTAG_LTGcore_CT_RTGcore_GT] (site TGTATTCCTAG) (LTG core: CT, RTG core: GT)",0.0923
9,"TGTATTCCTTGGGTTCTAACCTGTTGCCTCA [TGTATTCCTAG_LTGcore_CT_RTGcore_TG] (site TGTATTCCTAG) (LTG core: CT, RTG core: TG)",0.1
10,"TGTATTCCTTGGGTTCTAACCTGTTGCCTCT [TGTATTCCTAG_LTGcore_CT_RTGcore_AG] (site TGTATTCCTAG) (LTG core: CT, RTG core: AG)",0.0303
11,"TGTATTCCTTGGGTTCTAACCTGTTGCCTTG [TGTATTCCTAG_LTGcore_CT_RTGcore_CA] (site TGTATTCCTAG) (LTG core: CT, RTG core: CA)",0.0735
12,"TGTATTCTCTGGGTTCTAACCTGTTGCCTAG [TGTATTCCTAG_LTGcore_TC_RTGcore_CT] (site TGTATTCCTAG) (LTG core: TC, RTG core: CT)",0.0135
13,"TTATAAAAATGGGTTCTAACCTGTTGCCTTT [TTATAAACTAG_LTGcore_AA_RTGcore_AA] (site TTATAAACTAG) (LTG core: AA, RTG core: AA)",0.038
14,"TTATAAAACTGGGTTCTAACCTGTTGCCTAG [TTATAAACTAG_LTGcore_AC_RTGcore_CT] (site TTATAAACTAG) (LTG core: AC, RTG core: CT)",0.39
15,"TTATAAAATTGGGTTCTAACCTGTTGCCTAG [TTATAAACTAG_LTGcore_AT_RTGcore_CT] (site TTATAAACTAG) (LTG core: AT, RTG core: CT)",0.0851
16,"TTATAAAATTGGGTTCTAACCTGTTGCCTAT [TTATAAACTAG_LTGcore_AT_RTGcore_AT] (site TTATAAACTAG) (LTG core: AT, RTG core: AT)",0.124
17,"TTATAAACCTGGGTTCTAACCTGTTGCCTGG [TTATAAACTAG_LTGcore_CC_RTGcore_CC] (site TTATAAACTAG) (LTG core: CC, RTG core: CC)",0.0325
18,"TTATAAACTTGGGTTCTAACCTGTTGCCTAC [TTATAAACTAG_LTGcore_CT_RTGcore_GT] (site TTATAAACTAG) (LTG core: CT, RTG core: GT)",0.944
19,"TTATAAACTTGGGTTCTAACCTGTTGCCTAT [TTATAAACTAG_LTGcore_CT_RTGcore_AT] (site TTATAAACTAG) (LTG core: CT, RTG core: AT)",0.302
20,"TTATAAACTTGGGTTCTAACCTGTTGCCTGG [TTATAAACTAG_LTGcore_CT_RTGcore_CC] (site TTATAAACTAG) (LTG core: CT, RTG core: CC)",0.574
21,"TTATAAACTTGGGTTCTAACCTGTTGCCTTT [TTATAAACTAG_LTGcore_CT_RTGcore_AA] (site TTATAAACTAG) (LTG core: CT, RTG core: AA)",0.0604
22,"TTATAAAGTTGGGTTCTAACCTGTTGCCTAG [TTATAAACTAG_LTGcore_GT_RTGcore_CT] (site TTATAAACTAG) (LTG core: GT, RTG core: CT)",0.109
23,"TTATAAATATGGGTTCTAACCTGTTGCCTTA [TTATAAACTAG_LTGcore_TA_RTGcore_TA] (site TTATAAACTAG) (LTG core: TA, RTG core: TA)",0.855
24,"TTATAAATGTGGGTTCTAACCTGTTGCCTAG [TTATAAACTAG_LTGcore_TG_RTGcore_CT] (site TTATAAACTAG) (LTG core: TG, RTG core: CT)",0.083
25,"TTATAAATTTGGGTTCTAACCTGTTGCCTAG [TTATAAACTAG_LTGcore_TT_RTGcore_CT] (site TTATAAACTAG) (LTG core: TT, RTG core: CT)",0.0473
